How the values were obtained:
B1R of the rat = target: T1, B1R of the rat (Rattus norvegicus, UniProt P97583); experiment: FLIPR Ca2+ functional assay, B1R antagonism, rat B1R in CHO K1 cells; format: cell-based; settings: test substance 10 μM; rB1R CHO K1 cells; agonist Des-Arg9 bradykinin at EC80; % of maximum achievable inhibition
T1 construct: expressed in transfected cells; host or cells: CHO K1 cells (Chinese hamster ovary), stably transfected
T1 sequence (P97583 1-337): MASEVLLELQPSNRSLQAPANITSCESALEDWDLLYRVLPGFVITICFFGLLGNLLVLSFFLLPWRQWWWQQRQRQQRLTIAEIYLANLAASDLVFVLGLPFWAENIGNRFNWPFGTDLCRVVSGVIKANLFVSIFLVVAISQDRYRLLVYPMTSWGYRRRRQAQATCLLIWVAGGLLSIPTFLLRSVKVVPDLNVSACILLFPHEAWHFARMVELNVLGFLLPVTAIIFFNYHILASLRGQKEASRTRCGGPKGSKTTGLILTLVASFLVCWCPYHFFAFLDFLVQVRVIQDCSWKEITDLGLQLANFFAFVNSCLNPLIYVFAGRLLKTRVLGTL
Procedure, shortened: (§1)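 IC50 values come from varied compound concentrations applied 10-20 min before an EC80 agonist challenge, with Des-Arg9 bradykinin for rat and Lys-Des-Arg9 bradykinin for human receptor. Ca2+ influx in Fluo-4-loaded CHO K1 transfectants was measured by FLIPR peak fluorescence. Data are % inhibition vs maximum, n=2-3, N>=2.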

human B1R = target: T2, human B1R (Homo sapiens, UniProt P46663); experiment: FLIPR Ca2+ functional assay, B1R antagonism, human B1R in CHO K1 cells; format: cell-based; settings: test substance 10 μM; hB1R CHO K1 cells; agonist Lys-Des-Arg9 bradykinin at EC80; % of maximum achievable inhibition
T2 construct: expressed in transfected cells; host or cells: CHO K1 cells (Chinese hamster ovary), stably transfected
T2 sequence (P46663 1-353): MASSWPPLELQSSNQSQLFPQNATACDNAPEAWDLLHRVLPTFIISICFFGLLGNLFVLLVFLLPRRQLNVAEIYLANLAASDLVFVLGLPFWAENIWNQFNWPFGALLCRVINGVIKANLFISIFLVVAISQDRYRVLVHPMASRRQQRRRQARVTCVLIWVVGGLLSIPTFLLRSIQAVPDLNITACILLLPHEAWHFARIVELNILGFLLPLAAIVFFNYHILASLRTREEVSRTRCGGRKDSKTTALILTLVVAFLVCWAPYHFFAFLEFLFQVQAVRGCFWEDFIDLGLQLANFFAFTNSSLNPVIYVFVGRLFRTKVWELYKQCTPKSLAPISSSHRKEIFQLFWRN
Procedure, shortened: as §1

inhibition at 10 µM (B1R of the rat): 105%
inhibition at 10 µM (human B1R): 99.6%
Compound: COc1ccc2cc(S(=O)(=O)N3CCn4cccc4C3CC(=O)NC3Cc4ccc(CN5CCCCC5)cc4C3)ccc2c1 (centres unmarked) [Example 48, 2-(2-(6-methoxynaphthalen-2-ylsulfonyl)-1,2,3,4-tetrahydropyrrolo-[1,2-a]pyrazin-1-yl)-N-(5-(piperidin-1-ylmethyl)-2,3-dihydro-1H-inden-2-yl)-acetamide]

Source: patent US8158628B2, “Sulfonylated 1,2,3,4-tetrahydropyrrolo[1,2-a]pyrazine compounds and their use as pharmaceuticals” (Gruenenthal GmbH, priority 2009, dated 2012)
